In US4034102A, “4-Substituted-1,3-dithiolan-2-ylidene malonates and pharmaceutical compositions containing the same” (Nihon Nohyaku Co. Ltd., priority 1975, dated 1977):

Tests used:
[1] = test system: CCl4-induced liver damage; assay: Protection against CCl4-induced Hepatotoxicity; format: in vivo, mice (four-week-old male, dd strain); details: 6 h before CCl4 (0.05 ml/kg oral), 24 h after CCl4, average of 5 to 6 mice; for Liver damage index: 250 mg/kg oral in olive oil, score 0 normal, 2 slightly recognized, 4 clearly observable damage, 6 heavy damage, CCl4 alone 5.2, control 0; for p-GPT (plasma glutamic-pyruvic transaminase activity): 250 mg/kg oral, values over 1,000 regarded as 1,000, CCl4 alone >1000, control 35
From the text: Carbon tetrachloride (CCl4) administration induces centrilobular necrosis of the liver associated with loss of diphosphopyridine nucleotide, hepatic glycogen, coenzyme A and increase in neutral fat. Release of several enzymes from the hepatocytes, and increase of enzyme activities in the plasma are recognized as the result of the damage of the liver. A suitable means for evaluating the degree of damage induced by CCl4 or the degree of protection afforded by drugs is to study the plasma glutamic-pyruvic transaminase (p-GPT) activity.
Methods: The test compounds were dissolved or suspended in olive oil and administered orally at the dose of 250 mg/kg to the mice (Four-week-old male mice-dd strain). After 6 hours, CCl4 was administered orally (0.05 ml/kg as olive oil solution). Animals were killed 24 hours after CCl4 administration, and the liver was grossly observed. The plasma was obtained by centrifugation. Activities of p-GPT were determined by the method of Reitman and Frankels and expressed in Karmen units. Score for liver damage index was as follows:
Each figure indicates average of 5 to 6 mice. Values of p-GPT over 1,000 Karmen unit regarded as 1,000 for calculation of average for convenience.

in vivo = details: mouse, oral, male mice, read-out: acute oral toxicity LD50
Method: For example, the LD50 value of the compound 12 is more than 3,000 mg/kg. Further, these compounds have no detrimental effects on test animals administered therewith, so far as the doses thereof are within an ordinary administration range.

| Structure (SMILES) | Liver damage index [1] | p-GPT (plasma glutamic-pyruvic transaminase activity) [1] [Karmen units] | LD50 (in vivo) [mg/kg] |
| --- | --- | --- | --- |
| CCOC(=O)C(C(=O)OCC)=C1SCC(OC(=O)CCC(=O)O)S1 (stereo not shown) [Compound 2, Succinic acid semi-ester of diethyl 4-hydroxy-1,3-dithiolan-2-ylidene malonate] | 0.6 | 43 |  |
| CC(C)OC(=O)C(C(=O)OC(C)C)=C1SCC(OC(=O)C2CC=CCC2C(=O)O)S1 (stereo not shown) [Compound 18] | 2.6 | 565 |  |
| CCCN(CCC)CC(=O)OC1CSC(=C(C(=O)OCC)C(=O)OCC)S1 (stereo not shown) [Compound 6] | 1.6 | 250 |  |
| CCN(CC)CC(=O)OC1CSC(=C(C(=O)OC(C)C)C(=O)OC(C)C)S1 (stereo not shown) [Compound 19, diisopropyl 4-diethylaminoacetoxy-1,3-dithiolan-2-ylidene malonate] | 1.2 | 288 |  |
| CCCOC(=O)C(C(=O)OCCC)=C1SCC(OC(=O)CCC(=O)O)S1 (stereo not shown) [Compound 8, Succinic acid semi-ester of di-n-propyl 4-hydroxy-1,3-dithiolan-2-ylidene malonate] | 0.6 | 77 |  |
| CC(C)OC(=O)C(C(=O)OC(C)C)=C1SCC(OC(=O)CCC(=O)O)S1 (stereo not shown) [Compound 12] | 0.2 | 33 | > 3000 |
| COc1ccc(-c2cc(=S)ss2)cc1 [Anethol trithion, reference compound] | 1.6 | 58 |  |
| CC(C)OC(=O)C(C(=O)OC(C)C)=C1SCC(OC(=O)C2=C(C(=O)O)CCCC2)S1 (stereo not shown) [Compound 17] | 1.8 | 286 |  |
| CCOC(=O)C(C(=O)OCC)=C1SCC(OC(=O)C2=C(C(=O)O)CCCC2)S1 (stereo not shown) [Compound 7] | 2.2 | 382 |  |
| CC(C)OC(=O)C(C(=O)OC(C)C)=C1SCC(OC(=O)c2ccccc2)S1 (stereo not shown) [Compound 10] | 1.7 | 520 |  |
| CCOC(=O)C(C(=O)OCC)=C1SCC(OC(=O)CCC(=O)O)S1 (stereo not shown) [Compound 4] | 0.2 | 45 |  |
| CC(C)OC(=O)C(C(=O)OC(C)C)=C1SCC(OC(=O)CCC(=O)O)S1 (stereo not shown) [Compound 11, succinic acid semi-ester of diisopropyl 4-hydroxy-1,3-dithiolan-2-ylidene malonate] | 0.2 | 54 |  |
| CCOC(=O)C(C(=O)OCC)=C1SCC(OC(=O)CCl)S1 (stereo not shown) [Compound 1] | 1.0 | 102 |  |
| CC(C)OC(=O)C(C(=O)OC(C)C)=C1SCC(OC(=O)CCC(=O)O)S1 (stereo not shown) [Compound 13] | 0.6 | 44 |  |
| CC(C)OC(=O)C(C(=O)OC(C)C)=C1SCC(OC(=O)CN2CCOCC2)S1 (stereo not shown) [Compound 21] | 1.4 | 380 |  |
| CC(C)OC(=O)C(C(=O)OC(C)C)=C1SCC(OC(=O)/C=C\C(=O)O)S1 (stereo not shown) [Compound 15] | 0.4 | 62 |  |
| CCOC(=O)C(C(=O)OCC)=C1SCC(OC(=O)CN(CC)CC)S1 (stereo not shown) [Compound 5, Diethyl 4-diethylaminoacetoxy-1,3-dithiolan-2-ylidene malonate] | 1.6 | 232 |  |
| CCCCOC(=O)C(C(=O)OCCCC)=C1SCC(OC(=O)CN2CCOCC2)S1 (stereo not shown) [Compound 22] | 0.8 | 134 |  |
| CCOC(=O)C(C(=O)OCC)=C1SCC(OC(=O)CCCC(=O)O)S1 (stereo not shown) [Compound 3] | 1.2 | 108 |  |
| NC(=O)CCCCC1CCSS1 (stereo not shown) [Thioctic acid amide, reference compound] | 4.8 | 763 |  |
| CCOC(=O)C(C(=O)OCC)=C1SCC(OC(=O)CN2CCOCC2)S1 (stereo not shown) [Compound 23] | 0.8 | 122 |  |
| CC(C)OC(=O)C(C(=O)OC(C)C)=C1SCC(OC(=O)CCl)S1 (stereo not shown) [Compound 9, diisopropyl 4-chloroacetoxy-1,3-dithiolan-2-ylidene malonate] | 0.6 | 65 |  |
| CC(C)OC(=O)C(C(=O)OC(C)C)=C1SCC(OC(=O)CCCC(=O)O)S1 (stereo not shown) [Compound 14] | 0.6 | 102 |  |
| CC(C)OC(=O)C(C(=O)OC(C)C)=C1SCC(OC(=O)c2ccccc2C(=O)O)S1 (stereo not shown) [Compound 16, phthalic acid semi-ester of diisopropyl 4-hydroxy-1,3-dithiolan-2-ylidene malonate] | 3.2 | 482 |  |
